Experimental data from US20240043439A1, “COMPOUNDS AS C5AR INHIBITORS” (Kira Pharmaceuticals (Suzhou) Ltd., priority 2020, published 2024).

The compounds below were run against C5aR (Homo sapiens (Human), UniProt P21730) (assay: Calcium mobilization (U937/C5aR or HEK293/C5aR cells, FLIPR)). Settings: agonist human C5a at EC80, FLIPR.
Assay type: cell-based
Description: U937/C5aR cells or HEK293/C5aR cells were washed by PBS and suspended in growth media at the density of 1×10^6 cells/ml. […] to the 384-well plate and culture for overnight. Transfer 250 nl compound solution to the cell plate using Echo, incubate for 60 min. Cells were added with Fluo-4 Direct™ dye and incubate for 50 min at 37° C. 5% CO2 and 10 m at room temperature. Place the cell plate into […] (Molecular Devices). Transfer 10 μl of 5-fold EC80 concentrations of agonist human C5a to the cell plates.

Chain of C5aR (P21730 whole entry): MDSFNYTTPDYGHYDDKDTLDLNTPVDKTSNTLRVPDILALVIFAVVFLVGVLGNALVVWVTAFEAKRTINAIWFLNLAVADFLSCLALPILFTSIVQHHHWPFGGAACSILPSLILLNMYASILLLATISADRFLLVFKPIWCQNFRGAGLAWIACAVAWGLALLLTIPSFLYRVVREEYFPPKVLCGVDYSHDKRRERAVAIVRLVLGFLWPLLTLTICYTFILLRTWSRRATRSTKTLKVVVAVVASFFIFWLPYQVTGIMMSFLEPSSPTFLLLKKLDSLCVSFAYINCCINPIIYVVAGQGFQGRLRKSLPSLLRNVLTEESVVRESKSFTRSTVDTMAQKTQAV

| Compound | IC50 |
| --- | --- |
| COC(=O)c1ccccc1S(=O)(=O)N1CCC[C@H](C(=O)Nc2ccc(C)c(C(F)(F)F)c2)[C@@H]1c1ccc(NC2CCCC2)cc1 [Compound 31, methyl 2-(((2R,3S)-2-(4-(cyclopentylamino)phenyl)-3-((4-methyl-3-(trifluoromethyl)phenyl)carbamoyl)piperidin-1-yl)sulfonyl)benzoate] | 2 to 10 µM |
| Cc1cccc(F)c1C(=O)N1[C@@H]2CCC[C@@H]2C[C@H](C(=O)NC2CCN(C)CC2)[C@@H]1c1ccc(NC2CCCC2)cc1 [Compound 53, (2R,3S,4aR,7aR)-2-(4-(cyclopentylamino)phenyl)-1-(2-fluoro-6-methylbenzoyl)-N-(1-methylpiperidin-4-yl)octahydro-1H-cyclopenta[b]pyridine-3-carboxamide] | 2 to 10 µM |
| Cc1cccc(F)c1C(=O)N1C(c2ccc(NC3CCOCC3)cc2)C(C(=O)Nc2cnn(C)c2)C[C@@H]2COC[C@@H]21 (relative stereo) [Compound 127, cis-1-(2-fluoro-6-methylbenzoyl)-N-(1-methyl-1H-pyrazol-4-yl)-2-(4-((tetrahydro-2H-pyran-4-yl)amino)phenyl)octahydrofuro[3,4-b]pyridine-3-carboxamide] | 2 to 10 µM |
| Cc1ccc(NC(=O)[C@H]2CCCN[C@H]2c2ccc(N(c3nccc4ccsc34)C3CCCC3)cc2)cc1C(F)(F)F [Compound 173, (2R,3S)-2-(4-(cyclopentyl(thieno[2,3-c]pyridin-7-yl)amino)phenyl)-N-(4-methyl-3-(trifluoromethyl)phenyl)piperidine-3-carboxamide] | 2 to 10 µM |
| Cc1ccc(NC(=O)[C@H]2CCCN[C@H]2c2ccc(N(c3nccc4scnc34)C3CCCC3)cc2)cc1C(F)(F)F [Compound 169, (2R,3S)-2-(4-(cyclopentyl(thiazolo[4,5-c]pyridin-4-yl)amino)phenyl)-N-(4-methyl-3-(trifluoromethyl)phenyl)piperidine-3-carboxamide] | 2 to 10 µM |
| COC(=O)c1cccc(C)c1S(=O)(=O)N1CCC[C@H](C(=O)Nc2ccc(C)c(C(F)(F)F)c2)[C@@H]1c1ccc(NC2CCCC2)cc1 [Compound 21, methyl 2-(((2R,3S)-2-(4-(cyclopentylamino)phenyl)-3-((4-methyl-3-(trifluoromethyl)phenyl)carbamoyl)piperidin-1-yl)sulfonyl)-3-methylbenzoate] | > 10 µM |
| Cc1ccc(NC(=O)[C@H]2CCCN[C@H]2c2ccc(N(c3ncnc4cccnc34)C3CCCC3)cc2)cc1C(F)(F)F [Compound 176, (2R,3S)-2-(4-(cyclopentyl(pyrido[3,2-d]pyrimidin-4-yl)amino)phenyl)-N-(4-methyl-3-(trifluoromethyl)phenyl)piperidine-3-carboxamide] | 2 to 10 µM |
| Cc1cccc(F)c1C(=O)N1[C@@H]2COC[C@@H]2CC(C(=O)Nc2cccnc2)[C@@H]1c1ccc(NC2CCOCC2)cc1 (mixture of isomers) [Compound 128, cis-1-(2-fluoro-6-methylbenzoyl)-N-(pyridin-3-yl)-2-(4-((tetrahydro-2H-pyran-4-yl)amino)phenyl)octahydrofuro[3,4-b]pyridine-3-carboxamide] | 2 to 10 µM |
| Cc1ccc(CNC(=O)[C@H]2C[C@H]3CCC[C@H]3N(C(=O)c3c(C)cccc3F)[C@H]2c2ccc(NC3CCCC3)cc2)cc1C(F)(F)F [Compound 185, (2R,3S,4aR,7aR)-2-(4-(cyclopentylamino)phenyl)-1-(2-fluoro-6-methylbenzoyl)-N-(4-methyl-3-(trifluoromethyl)benzyl)octahydro-1H-cyclopenta[b]pyridine-3-carboxamide] | 2 to 10 µM |
| Cc1ccc(NC(=O)[C@H]2CCCN(c3ncnc4ccccc34)[C@H]2c2ccc(N(C(=O)OCc3ccccc3)C3CCCC3)cc2)cc1C(F)(F)F [Compound 163, benzyl cyclopentyl(4-((2R,3S)-3-((4-methyl-3-(trifluoromethyl)phenyl)carbamoyl)-1-(quinazolin-4-yl)piperidin-2-yl)phenyl)carbamate] | 2 to 10 µM |
| Cc1ccc(NC(=O)C2CC3CCCC3N(C(=O)c3c(C)cccc3F)C2c2ccc(NC3CCCC3)cc2)cc1C(F)(F)F (stereo in doubt) [Compound 48, (2S,3R,4aS,7aS)-2-(4-(cyclopentylamino)phenyl)-1-(2-fluoro-6-methylbenzoyl)-N-(4-methyl-3-(trifluoromethyl)phenyl)octahydro-1H-cyclopenta[b]pyridine-3-carboxamide] | 2 to 10 µM |
| Cc1ccc(NC(=O)[C@H]2CCCN[C@H]2c2ccc(N(c3nccc4nccnc34)C3CCCC3)cc2)cc1C(F)(F)F [Compound 172, (2R,3S)-2-(4-(cyclopentyl(pyrido[3,4-b]pyrazin-5-yl)amino)phenyl)-N-(4-methyl-3-(trifluoromethyl)phenyl)piperidine-3-carboxamide] | 2 to 10 µM |
| Cc1cc(C)cc(S(=O)(=O)N2CCC[C@H](C(=O)Nc3ccc(C)c(C(F)(F)F)c3)[C@@H]2c2ccc(NC3CCCC3)cc2)c1 [Compound 12, (2R,3S)-2-(4-(cyclopentylamino)phenyl)-1-((3,5-dimethylphenyl)sulfonyl)-N-(4-methyl-3-(trifluoromethyl)phenyl)piperidine-3-carboxamide] | > 10 µM |
| Cc1ccc(NC(=O)[C@@H]2CCC3CCc4ccccc4C(=O)N3[C@@H]2c2ccc(NC3CCCC3)cc2)cc1C(F)(F)F (stereo partly drawn) [Compound 45, (3R,4S)-4-(4-(cyclopentylamino)phenyl)-N-(4-methyl-3-(trifluoromethyl)phenyl)-6-oxo-1,2,3,4,6,11,12,12a-octahydrobenzo[e]pyrido[1,2-a]azepine-3-carboxamide] | 2 to 10 µM |
| Cc1cccc(F)c1C(=O)N1C2CCC[C@@H]2C[C@H](C(=O)Nc2cnc(-n3nccn3)c(Cl)c2)[C@@H]1c1ccc(NC2CCCC2)cc1 (relative stereo) [Compound 75, cis-N-(5-chloro-6-(2H-1,2,3-triazol-2-yl)pyridin-3-yl)-2-(4-(cyclopentylamino)phenyl)-1-(2-fluoro-6-methylbenzoyl)octahydro-1H-cyclopenta[b]pyridine-3-carboxamide] | > 10 µM |
| Cc1ccc(NC(=O)[C@H]2C[C@H]3CCC[C@H]3N(C(=O)c3cnn(C)c3)C2c2ccc(NC3CCCC3)cc2)cc1C(F)(F)F (relative stereo) [Compound 112, cis-2-(4-(cyclopentylamino)phenyl)-1-(1-methyl-1H-pyrazole-4-carbonyl)-N-(4-methyl-3-(trifluoromethyl)phenyl)octahydro-1H-cyclopenta[b]pyridine-3-carboxamide] | > 10 µM |
| Cc1ccc(NC(=O)[C@@H]2CCCN[C@H]2c2ccc(N(c3ncnc4cccnc34)C3CCCC3)cc2)cc1C(F)(F)F [Compound 174, (2R,3R)-2-(4-(cyclopentyl(pyrido[3,2-d]pyrimidin-4-yl)amino)phenyl)-N-(4-methyl-3-(trifluoromethyl)phenyl)piperidine-3-carboxamide] | 2 to 10 µM |
| Cc1ccc(NC(=O)[C@H]2CCCN[C@H]2c2ccc(N(c3ncnc4ccccc34)C3CCCC3)cc2)cc1C(F)(F)F [Compound 177, (2R,3S)-2-(4-(cyclopentyl(quinazolin-4-yl)amino)phenyl)-N-(4-methyl-3-(trifluoromethyl)phenyl)piperidine-3-carboxamide] | 2 to 10 µM |
| Cc1ccc(NC(=O)[C@H]2CCCN(c3nccc4nccnc34)[C@H]2c2ccc(N(C(=O)OCc3ccccc3)C3CCCC3)cc2)cc1C(F)(F)F [Compound 165, benzyl cyclopentyl(4-((2R,3S)-3-((4-methyl-3-(trifluoromethyl)phenyl)carbamoyl)-1-(pyrido[3,4-b]pyrazin-5-yl)piperidin-2-yl)phenyl)carbamate] | 2 to 10 µM |
| Cc1ccc(NC[C@H]2CCCN(C(=O)c3c(C)cccc3F)[C@H]2c2ccc(NC3CCCC3)cc2)cc1C(F)(F)F [Compound 160, ((2R,3R)-2-(4-(cyclopentylamino)phenyl)-3-(((4-methyl-3-(trifluoromethyl)phenyl)amino)methyl)piperidin-1-yl)(2-fluoro-6-methylphenyl)methanone] | 2 to 10 µM |
| Cc1ccc(NC(=O)[C@@H]2CCCN(c3ccncn3)[C@H]2c2ccc(NC3CCCC3)cc2)cc1C(F)(F)F [Compound 3, (2R,3R)-2-(4-(cyclopentylamino)phenyl)-N-(4-methyl-3-(trifluoromethyl)phenyl)-1-(pyrimidin-4-yl)piperidine-3-carboxamide] | 2 to 10 µM |
| Cc1cccc(F)c1C(=O)N1C(c2ccc(NC3CCN(C)CC3)cc2)C(C(=O)Nc2ccc3c(cnn3C)c2)C[C@@H]2CCC[C@@H]21 (relative stereo) [Compound 117, cis-1-(2-fluoro-6-methylbenzoyl)-N-(1-methyl-1H-indazol-5-yl)-2-(4-((1-methylpiperidin-4-yl)amino)phenyl)octahydro-1H-cyclopenta[b]pyridine-3-carboxamide] | 2 to 10 µM |
| Cc1ccc(NC(=O)C2C[C@@H]3CN(CC(F)(F)F)C[C@@H]3N(C(=O)c3c(C)cccc3F)C2c2ccc(NC3CCCC3)cc2)cc1C(F)(F)F (relative stereo) [Compound 206, cis-2-(4-(cyclopentylamino)phenyl)-1-(2-fluoro-6-methylbenzoyl)-N-(4-methyl-3-(trifluoromethyl)phenyl)-6-(2,2,2-trifluoroethyl)octahydro-1H-pyrrolo[3,4-b]pyridine-3-carboxamide] | 2 to 10 µM |
| Cc1ccc(NC(=O)[C@@H]2CCCN[C@H]2c2ccc(N(c3nccc4cccnc34)C3CCCC3)cc2)cc1C(F)(F)F [Compound 171, (2R,3R)-2-(4-(cyclopentyl(1,7-naphthyridin-8-yl)amino)phenyl)-N-(4-methyl-3-(trifluoromethyl)phenyl)piperidine-3-carboxamide] | 2 to 10 µM |
| Cc1ccc(NC(=O)[C@H]2CCCN[C@H]2c2ccc(N(c3nncc4ccccc34)C3CCCC3)cc2)cc1C(F)(F)F [Compound 179, (2R,3S)-2-(4-(cyclopentyl(phthalazin-1-yl)amino)phenyl)-N-(4-methyl-3-(trifluoromethyl)phenyl)piperidine-3-carboxamide] | 2 to 10 µM |
